Results: patent US6497872B1, “Neural transplantation using proliferated multipotent neural stem cells and their progeny” (NeuroSpheres Holdings Ltd., priority 1991, dated 2002)

How the values were obtained:
[1] = test system: BrdU positive cells in cervical spinal cord; experiment: In vivo infusion of growth factors into ventricles, BrdU labelling of cervical spinal cord (Example 30); set-up: species or system mouse; settings: 25 μg/mL, osmotic mini-pump, six days
Experimental: Adult male CD1 albino mice (30-35 g) from Charles River were anaesthetized with sodium pentobarbital ([…]) and placed in a stereotaxic apparatus. The dorsal aspect of the skull was exposed with a longitudinal incision. Cannulas were inserted into the fourth ventricle (stereotaxic coordinates A/P −7.0, L ±0.3 D/V −5.8), cerebral aqueduct (A/P −4.8 L ±D/V −2.6), or central canal (DIV −1.5). The cannulae were attached with sterile tubing to subcutaneous positioned ALZET osmotic mini-pumps containing 25 μg/mL EGF (Becton 40001) and/or 25 μg/mL FGF-2 (R&D Systems 233-FB). Pumps containing sterile saline plus 0.1% mouse albumin (Sigma A3134) were used as controls. The incisions were closed with dental cement.
Six days following surgery mice were injected with 0.15 mL BrdU (Sigma B5002); 18 mg/mL in 0.007% NaOH/0.1M PBS) every 2 hours for 8 hours. They were killed 0.5 hours after the last injection with an anaesthetic overdose, and transcardially perfused with 10 mL of ice-cold sterile saline followed by 10 mL of ice-cold Bouin's fixative (5% glacial acetic acid, 9% formaldehyde, 70% picric acid). The cervical spinal cord region was dissected out and post-fixed overnight at 4° C. in Bouin's post-fixative solution (9% formaldehyde, 70% picric acid). […] The number of BrdU positive cells was counted per cervical spinal cord section. […]

[2] = test system: constitutively proliferating subependymal cells of the lateral ventricles; experiment: In vivo proliferation of retrovirus β-gal labelled cells of the lateral ventricle (Example 27); set-up: species or system mouse
Experimental: A replication incompetent retrovirus containing the β-galactosidase gene [as described in Walsh and Cepko, Science 241:1342, (1988)] was injected into the forebrain lateral ventricles of CD1 adult male mice (25-30 g from Charles River). The injected retrovirus was harvested from the BAG cell line (ATCC CRL-9560) according to the method of Walsh and Cepko (supra). Mice were anesthetized using 65 mg/kg, i.p. sodium pentobarbital. Unilateral stereotactic injections of 0.2-1.0 μl of retrovirus were injected into the lateral ventricle using a 1 μl Hamilton syringe. The coordinates for injection were AP +4.2 mm anterior to lambda, L ±0.7 mm, and DV −2.3 mm below dura, with the mouth bar at −2 mm below the interaural line.
On the same day as, one day, or six days following the retrovirus injection, an infusion cannulae attached to a 0.5 μl/hour ALZET osmotic mini-pumps filled with 3.3-330 μg/ml of EGF were surgically implanted into the lateral ventricles at the identical stereotactic coordinates as stated above. The infusion cannula kits were obtained from ALZA. The infusion cannulae were cut to 2.7 mm below the pedestal. The pumps were secured to the mouse skull by use of acrylic cement and a skull screw contralateral and caudal to the injection site. […]

How did the “number of BrdU labelled cells per cervical spinal cord section compared to control” value [1] turn out when “bFGF: basic fibroblast growth factor, recombinant human (R & D Systems)” was run?
The value was “significant increase”.

And the “number of β-gal labelled cells” value ([2]; 33 μg/ml infusion)?
The value was “increase”.

What about the “migration of β-gal labelled cells” value ([2]; 6 days infusion) of the same substance?
Its value is “not accompanied by any additional migration”.
